Source: article doi:10.1101/2025.02.11.637513v1 (bioRxiv, 2025)
Non-standard residues stand in square brackets, D forms with d. No end group written: not given here. *: point of attachment. Phe(2-Cl) = N[C@@H](Cc1ccccc1Cl)C(=O)O; 1Nal = N[C@@H](Cc1cccc2ccccc12)C(=O)O; Met(O2) = CS(=O)(=O)CC[C@H](N)C(=O)O; Hyp = O=C(O)[C@@H]1C[C@@H](O)CN1; Tic = O=C(O)[C@@H]1Cc2ccccc2CN1; Cha = N[C@@H](CC1CCCCC1)C(=O)O; Abu = CC[C@H](N)C(=O)O; Bn = c1ccc(C*)cc1

What was measured:
Assay in all cases: tetrapeptide-ACC substrate cleavage kinetics
Type in all cases: biochemical
human caspase-1 = target: T1, human caspase-1 (Homo sapiens, UniProt P29466); settings: Ac-P4-P3-P2-Asp-ACC substrate, 0.05-500 μM, 2-15 nM enzyme, 37°C, triplicate
T1 sequence (P29466 120-297 limits assumed): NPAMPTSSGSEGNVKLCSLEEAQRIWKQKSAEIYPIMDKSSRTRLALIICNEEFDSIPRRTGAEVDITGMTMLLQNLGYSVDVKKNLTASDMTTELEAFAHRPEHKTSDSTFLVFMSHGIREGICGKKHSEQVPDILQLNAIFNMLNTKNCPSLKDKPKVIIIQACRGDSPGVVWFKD
T1 sequence (P29466 317-404 limits assumed): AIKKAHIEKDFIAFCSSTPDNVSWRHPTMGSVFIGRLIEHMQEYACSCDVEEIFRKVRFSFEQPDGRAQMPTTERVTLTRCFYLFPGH

human caspase-4 = target: T2, human caspase-4 (Homo sapiens, UniProt P49662); settings: Ac-P4-P3-P2-Asp-ACC substrate, 0.05-500 μM, 35-200 nM enzyme, 37°C, triplicate
T2 sequence (P49662 81-270 limits assumed): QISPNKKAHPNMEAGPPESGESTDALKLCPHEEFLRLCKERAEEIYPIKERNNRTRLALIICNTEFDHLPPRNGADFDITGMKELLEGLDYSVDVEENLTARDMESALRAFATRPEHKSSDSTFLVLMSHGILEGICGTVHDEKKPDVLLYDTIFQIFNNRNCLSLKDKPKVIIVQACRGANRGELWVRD
T2 sequence (P49662 290-377 limits assumed): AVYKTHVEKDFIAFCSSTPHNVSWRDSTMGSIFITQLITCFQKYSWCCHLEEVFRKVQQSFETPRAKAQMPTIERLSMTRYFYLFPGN

human caspase-5 = target: T3, human caspase-5 (Homo sapiens, UniProt P51878); settings: Ac-P4-P3-P2-Asp-ACC substrate, 0.05-500 μM, 20-250 nM enzyme, 37°C, triplicate
T3 sequence (P51878 137-327 limits assumed): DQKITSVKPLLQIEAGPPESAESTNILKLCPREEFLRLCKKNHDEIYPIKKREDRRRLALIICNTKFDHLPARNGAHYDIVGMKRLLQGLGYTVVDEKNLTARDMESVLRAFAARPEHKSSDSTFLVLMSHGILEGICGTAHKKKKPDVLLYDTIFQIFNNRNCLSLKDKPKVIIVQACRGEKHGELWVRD
T3 sequence (P51878 347-434 limits assumed): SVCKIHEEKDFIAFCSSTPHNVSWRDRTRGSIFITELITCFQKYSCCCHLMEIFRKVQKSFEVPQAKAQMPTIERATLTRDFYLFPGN

human caspase-3 = target: T4, human caspase-3 (Homo sapiens, UniProt P42574); settings: Ac-P4-P3-P2-Asp-ACC substrate, 0.05-500 μM, 3-35 nM enzyme, 37°C, triplicate
T4 sequence (P42574 29-175 limits assumed): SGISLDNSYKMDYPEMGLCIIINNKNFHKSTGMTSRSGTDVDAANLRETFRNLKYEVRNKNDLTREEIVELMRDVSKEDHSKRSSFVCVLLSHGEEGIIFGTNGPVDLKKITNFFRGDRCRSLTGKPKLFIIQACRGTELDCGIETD
T4 sequence (P42574 176-277 limits assumed): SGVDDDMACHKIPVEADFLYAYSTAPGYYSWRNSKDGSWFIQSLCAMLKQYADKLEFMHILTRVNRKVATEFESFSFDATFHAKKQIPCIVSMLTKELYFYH

human caspase-7 = target: T5, human caspase-7 (Homo sapiens, UniProt P55210); settings: Ac-P4-P3-P2-Asp-ACC substrate, 0.05-500 μM, 40-400 nM enzyme, 37°C, triplicate
T5 sequence (P55210 24-198 limits assumed): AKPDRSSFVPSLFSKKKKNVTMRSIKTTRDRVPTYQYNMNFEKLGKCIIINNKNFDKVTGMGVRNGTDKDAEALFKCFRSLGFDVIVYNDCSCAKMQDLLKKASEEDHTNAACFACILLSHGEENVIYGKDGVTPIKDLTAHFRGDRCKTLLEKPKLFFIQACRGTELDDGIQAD
T5 sequence (P55210 207-303 limits assumed): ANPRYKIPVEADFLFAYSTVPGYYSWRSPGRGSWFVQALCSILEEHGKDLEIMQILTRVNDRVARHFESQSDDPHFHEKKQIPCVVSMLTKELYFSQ

human caspase-8 = human caspase-8 (Homo sapiens, UniProt Q14790); settings: Ac-P4-P3-P2-Asp-ACC substrate, 0.05-500 μM, 6-42 nM enzyme, 37°C, triplicate
Sequence of human caspase-8 (Q14790 217-374 limits assumed): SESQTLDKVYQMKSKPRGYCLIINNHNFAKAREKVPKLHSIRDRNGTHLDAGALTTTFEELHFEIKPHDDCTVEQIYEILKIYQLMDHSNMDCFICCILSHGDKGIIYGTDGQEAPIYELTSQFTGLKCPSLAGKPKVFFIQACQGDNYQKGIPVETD
Sequence of human caspase-8 (Q14790 385-479 limits assumed): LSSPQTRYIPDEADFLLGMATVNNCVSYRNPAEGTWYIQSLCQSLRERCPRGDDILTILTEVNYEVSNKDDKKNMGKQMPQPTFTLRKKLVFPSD

human caspase-9 = target: T6, human caspase-9 (Homo sapiens, UniProt P55211); settings: Ac-P4-P3-P2-Asp-ACC substrate, 0.05-500 μM, 20-150 nM enzyme, 37°C, triplicate
T6 sequence (P55211 1-315 limits assumed): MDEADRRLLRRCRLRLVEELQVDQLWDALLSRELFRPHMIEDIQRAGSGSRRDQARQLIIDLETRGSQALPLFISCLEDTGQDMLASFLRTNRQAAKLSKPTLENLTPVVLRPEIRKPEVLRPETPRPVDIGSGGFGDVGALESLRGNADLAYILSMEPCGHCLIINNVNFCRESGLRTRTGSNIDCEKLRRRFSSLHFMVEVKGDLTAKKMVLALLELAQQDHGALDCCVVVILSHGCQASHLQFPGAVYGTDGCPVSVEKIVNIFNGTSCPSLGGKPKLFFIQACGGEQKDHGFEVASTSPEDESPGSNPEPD
T6 sequence (P55211 331-416 limits assumed): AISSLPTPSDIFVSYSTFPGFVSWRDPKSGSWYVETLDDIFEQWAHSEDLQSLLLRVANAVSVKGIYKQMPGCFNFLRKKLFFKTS

Substance	kcat/KM caspase-1 (human caspase-1)	kcat/KM caspase-4 (human caspase-4)	kcat/KM caspase-5 (human caspase-5)	kcat/KM caspase-3 (human caspase-3)	kcat/KM caspase-7 (human caspase-7)	kcat/KM caspase-8 (human caspase-8)	kcat/KM caspase-9 (human caspase-9)
Tyr-Gln-Pro-Asp	47 200 M^-1s^-1	740 M⁻¹ s⁻¹	1 590 M^-1s^-1	1 920 M^-1s^-1	300 M⁻¹ s⁻¹	2 170 M^-1s^-1	350 M⁻¹ s⁻¹
Glu(Ochx)-Bip-His(Bzl)-Asp	< 10 M⁻¹ s⁻¹	< 10 M⁻¹ s⁻¹	< 10 M⁻¹ s⁻¹	< 10 M⁻¹ s⁻¹	20 M⁻¹ s⁻¹	110 M⁻¹ s⁻¹	40 M⁻¹ s⁻¹
[1Nal]Q[Abu]D	168 100 M^-1s^-1	2 190 M^-1s^-1	4 640 M^-1s^-1	1 660 M^-1s^-1	220 M⁻¹ s⁻¹	4 420 M^-1s^-1	100 M⁻¹ s⁻¹
[Cha]E[Tic]D	159 100 M^-1s^-1	37 900 M^-1s^-1	28 860 M^-1s^-1	10 440 M^-1s^-1	950 M⁻¹ s⁻¹	7 860 M^-1s^-1	7 760 M^-1s^-1
[Phe(2-Cl)]E[Tic]D	243 800 M^-1s^-1	15 180 M^-1s^-1	16 790 M^-1s^-1	75 860 M^-1s^-1	10 040 M^-1s^-1	13 980 M^-1s^-1	5 410 M^-1s^-1
V[Hyp](Bn)HD	< 10 M⁻¹ s⁻¹	< 10 M⁻¹ s⁻¹	< 10 M⁻¹ s⁻¹	510 M⁻¹ s⁻¹	10 M⁻¹ s⁻¹	3 260 M^-1s^-1	660 M⁻¹ s⁻¹
YT(Bn)HD	201 400 M^-1s^-1	1 260 M^-1s^-1	6 920 M^-1s^-1	4 500 M^-1s^-1	270 M⁻¹ s⁻¹	4 760 M^-1s^-1	7 970 M^-1s^-1
W[Met(O2)]HD	547 600 M^-1s^-1	9 620 M^-1s^-1	15 430 M^-1s^-1	4 970 M^-1s^-1	60 M⁻¹ s⁻¹	2 380 M^-1s^-1	6 700 M^-1s^-1
Thr-Trp-His-Asp	4 500 M^-1s^-1	450 M⁻¹ s⁻¹	600 M⁻¹ s⁻¹	26 990 M^-1s^-1	710 M⁻¹ s⁻¹	1 100 M^-1s^-1	4 810 M^-1s^-1
Trp-Glu-His-Asp	552 400 M^-1s^-1	18 000 M^-1s^-1	26 800 M^-1s^-1	8 970 M^-1s^-1	410 M⁻¹ s⁻¹	14 900 M^-1s^-1	8 500 M^-1s^-1
